Experimental findings from US6664244B1, “Pet foods” (Nihon Shokuhin Kako Co., Ltd., priority 1998, dated 2003) are described below.

In assay [1] the test system is beagles. The experiment in a line: Experiments on suppression of obesity (body weight change, high-fat feed). The following applies: healthy beagles; Hills c/d Dry 200 g + lard 117 g basic feed, corn starch replaced with 23.4 g β-CD; about 400 kcal per metabolic body weight per day; vs reference group (FIG. 1). The class given is in vivo. As to the method: Ten healthy beagles were divided in 2 groups consisting of 5, respectively. Hills c/d Dry were fed for 1 week before the experiment. As for feeds in this experiment, the one in which 200 g of Hills c/d Dry blended with 117 g of lard was used as a basic feed. In the reference group, the one in which 34 g of cornstarch was added to the above basic feed is used. In the experimental group, the feed used is the same one as used in the reference group except that all corn starch was replaced with 23.4 g of β-CD (β-cyclodextrin). The feeding amount for one dog, per day, was controlled without changing the ratio of components so that the amount of the basic feed (Hills c/d Dry and lard) is about 400 kcal per metabolic body weight (kg0.75)

The subject of assay [2] is beagles. Put plainly: Experiments on solution of obesity (body weight change in obese beagles). The class given is in vivo. The following applies: beagles made obese by 2 months of high-energy foods; feed with 23.4 g corn starch replaced with β-CD; about 275 kcal per metabolic body weight per day (FIG. 2). An excerpt:
Ten beagles were fed high-energy foods for 2 months before the experiment, so that they became obese. At the beginning of the experiment, they were divided in […] so as to make uniform the average body weight of each group as much as possible. The feed used in the reference group was the same as that of Experiment 1 and the same feed in which 23.4 g of corn starch was replaced with β-CD was used in the β-CD group. The feeding amount for one dog, per day was controlled without changing the ratio of components so that the amount of the basic feed (Hills c/d Dry and lard) is about 275 kcal per metabolic body weight (kg0.75).

On to `OC[C@H]1O[C@@H]2O[C@H]3[C@H](O)[C@@H](O)[C@@H](O[C@H]4[C@H](O)[C@@H](O)[C@@H](O[C@H]5[C@H](O)[C@@H](O)[C@@H](O[C@H]6[C@H](O)[C@@H](O)[C@@H](O[C@H]7[C@H](O)[C@@H](O)[C@@H](O[C@H]8[C@H](O)[C@@H](O)[C@@H](O[C@H]1[C@H](O)[C@H]2O)O[C@@H]8CO)O[C@@H]7CO)O[C@@H]6CO)O[C@@H]5CO)O[C@@H]4CO)O[C@@H]3CO` [β-CD, β-cyclodextrin], for which the “increase of body weight” value in the assay on beagles [1] is “significantly suppressed”. Moreover, the body weight entry in the assay on beagles [2] was “significantly reduced”.
